Assay results from patent US20120122765A1, “COMPOUNDS AND RELATED METHODS FOR MANIPULATING PARP-1-DEPENDENT CELL DEATH” (priority 2010, published 2012).
Positions count from the first letter of the chain named. Names may count otherwise. “Also recorded” adds a separate entry of the source. One block for each molecule: values may come before it. Where no end group is shown, it is not given here.

Columns and labels:
PAR [1] = experiment: PAR overlay assay of full length AIF and mutants; assay type: binding; conditions: for reduced PAR binding: radioactive signal normalized to WT-AIF; for binding to 32P-labeled automodified PARP-1 or purified 32P-labeled PAR / effect of hundred fold excess of salmon sperm DNA on PAR binding: overlay assay; for binding to 32P-labeled automodified PARP-1 or purified 32P-labeled PAR: 100 nM PAR; for effect of hundred fold excess of salmon sperm DNA on PAR binding: 32P-labeled PAR; for effect of salmon sperm DNA on PAR binding: salmon sperm DNA at 760 μM
Description: The following experiment was performed to confirm whether AIF in fact binds to PAR. Applicants performed 3 trials of an overlay assay on recombinant AIF with affinity-purified biotin-labeled PAR. Histone H3, which binds to PAR with high affinity, was included as a positive control and bovine serum albumin (“BSA”) was included as a negative control, as described by P. Chang et al. (Nat Cell Bio, 2005). FIG. 1B depicts three photos side by side for gels representative of all trials for these overlay assays. […] Thus, Applicants took the results of these two tests as confirming that AIF binds to PAR in vitro.
To further study these potential AIF PBMs, Applicants performed the following experiment to examine the effect of mutating AIFm amino acids 222-244, 441-463, and/or 567-592 to poly-alanine on the ability of AIF to bind PAR. FIG. 6 comprises black and white photographs of representative gels from an overlay assay of His-tagged WT-AIF, AIFm222-244, AIFm441-463, AIFm567-592, AIFΔ567-592 (i.e., a mutant lacking AAs 567-592), and AIF(K254A, R264A) (i.e., mutating K to A at 254 and R to A at 264) mutants with ^32P-labeled automodified PARP-1 (equivalent to 100 nM of PAR), purified ^32P-labeled PAR (100 nM), or purified ^32P-labeled PAR with either a 100-fold excess of DNA or cold PAR. […] The same can be assumed to corresponding sequences for other species, such as those identified in FIG. 4.
Additionally, to exclude the possibility that PAR polymer is binding to AIF through its DNA-binding domain, PAR polymer binding was assessed against the full length AIF DNA-binding mutant AIFK254A;R264A as described by H Cande et al. (Nat Struct Biol, 2002).
Finally, Human AIF (“AIFH”) is known to bind to DNA through a groove between the FAD-binding domain (“D1”) and C-terminal domain (“D3”). A mutant form of AIFH in which lysine 255 is substituted with alanine and arginine 265 is substituted with alanine (AIFK255A;R265A) completely lacks DNA binding. To investigate the possible contribution of the AIF DNA-binding domain to PAR binding, Applicants assessed PAR binding to AIFm mutated in the same way (AIFK254A;R264A). […] Thus, Applicants concluded that the AIF PAR-binding site is separable from its DNA-binding site, meaning that such binding could be inhibited by genetically modifying AIF without impacting the natural DNA binding capabilities of AIF or potentially by otherwise inhibiting the binding action of the PBMs.

isolated mitochondria = experiment: AIF binding to isolated mitochondria
Description: One commonly accepted estimate is that approximately 20%-30% of AIF resides on the cytosolic side of the outer membrane of mitochondria, where it is poised to be rapidly released by PAR following PARP-1 activation. Applicants thus wanted to perform tests of AIF binding to mitochondria determine how readily purified WT-AIF and Pbm-AIF bind to mitochondria in a time- and concentration-dependent manner. Specifically, recombinant WT-AIF (2.5 ng/μl) and Pbm-AIF (2.5 ng/μl) were incubated with isolated mitochondria (200 μg/ml) for 1 minute, 5 minutes, 10 minutes, 15 minutes, 20 minutes or 30 minutes. […] The results of this portion of the experiment is provided by the graph of FIG. 15B.
To investigate the mechanism underlying mitochondrial AIF release following PARP-1 activation, Applicants incubated isolated mitochondria with purified non-tagged forms of AIF in the presence or absence of PAR and followed this by centrifugation to remove the mitochondria. Detection of AIF remaining in the supernatant was thereafter performed through immunoblot analysis.
The supernatant collected in the experiments of Example 16 were also analyzed for the presence of Tom20 and cyclochrome c.

PAR [2] = experiment: nitrocellulose saturation binding experiments; conditions: PAR binding, saturation binding
Description: Applicants thereafter repeated the experiments using both wild type and mutant AIFm peptides spanning only amino acids 567-592 instead of full length AIFm and obtained results consistent with those using full-length AIF. […] The double amino acid mutant Dm (corresponding to only amino acids 567-592 of AIF-Dm so as to consist of SEQ. ID NO. 16) bound PAR. […] Thus, it is preferred in embodiments of the invention when conducting genetic manipulations to convert at least three target basic amino acids in the PBM to hydrophobic amino acids.
The PAR polymer binding properties of the mutant Pbm-AIF was then measured using full-length recombinant His-WT-AIF and His tagged Pbm-AIF (“His-Pbm-AIF”) via a series of nitrocellulose saturation binding experiments. Similar experiments were also conducted for the shorter peptides Dm and Tm in comparison to WT. FIG. 10B through FIG. 10D comprise charts reporting data from these various experiments. With regard to the shorter peptides, Applicants determined that the binding affinity constant (“Kd”) and maximum binding capacity (“Bmax”) of these AIF mimetic peptides and the results are reported in the chart of FIG. 10B. […] FIG. 10D comprises a Scatchard plot (95% confidence interval) of the results.

- reduced PAR binding (PAR [1]): about 85%
Molecule: AIFR588L;K589L: His-tagged mouse AIF double leucine mutant, SEQ. ID NO. 19 (LRDKVVVGIVLWNVFNRMPIALLIIK; also: His tag)

- reduced PAR binding (PAR [1]): about 85%
Molecule: AIFR588L;K592L: His-tagged mouse AIF double leucine mutant, SEQ. ID NO. 20 (LRDKVVVGIVLWNVFNRMPIALKIIL; also: His tag)

- Tom20 in the supernatant (mitochondrial integrity) (isolated mitochondria; any concentration of PAR used): could not be detected in the supernatant
Molecule: Poly(ADP-ribose) [PAR, reference compound]
- release of endogenous cytochrome c from mitochondria (isolated mitochondria; 5 nM and 50 nM PAR): failed to induce the release of endogenous cytochrome c
- release of endogenous cytochrome c from mitochondria (isolated mitochondria; 100 nM PAR): a weak cytochrome c signal could be detected

- Bmax (PAR [2]): 4.57 pmol
- Bmax (PAR [2]; listed as AIFm567-592 peptide): 4.55 pmol
Molecule: peptide of amino acids 567-592 of mouse AIF, SEQ. ID NO. 10 LRDKVVVGIVLWNVFNRMPIARKIIK (mouse) [WT peptide]

- PAR binding (PAR [1]; His-tagged proteins, purified PAR, normalized to WT-AIF, result in words): nearly abolished PAR-binding
Molecule: triple leucine mutant: mouse AIF mutant R588L;K589L;K592L (LRDKVVVGIVLWNVFNRMPIALLIIL; mouse)

- effect of hundred fold excess of salmon sperm DNA on PAR binding (PAR [1]): fails to disrupt
- effect of salmon sperm DNA on PAR binding (PAR [1]): failed to disrupt PAR binding
B5: AIFm441-463: His-tagged mouse AIF with amino acids 441 to 463 mutated to poly-alanine (protein)
chain: MFRCGGLAGAFKQKLVPLVRTVYVQRPKQRNRLPGNLFQQWRVPLELQMARQMASSGSSGGKMDNSVLVLIVGLSTIGAGAYAYKTIKEDQKRYNERVMGLGLSPEEKQRRAIASATEGGSVPQIRAPSHVPFLLIGGGTAAFAAARSIRARDPGARVLIVSEDPELPYMRPPLSKELWFSDDPNVTKTLQFRQWNGKERSIYFQPPSFYVSAQDLPNIENGGVAVLTGKKVVHLDVRGNMVKLNDGSQITFEKCLIATGGTPRSLSAIDRAGAEVKSRTTLFRKIGDFRALEKISREVKSITVIGGGFLGSELACALGRKSQASGIEVIQLFPEKGNMGKILPQYLSNWTMEKVKREGVKVMPNAIVQSVGVSGGRLLIKLKDGRKVETDHIVTAVGLEPNVELAKTGGLEIDSDFGGFRVNAELQARSNIWVAGDAACAAAAAAAAAAAAAAAAAAAAAAAAGENMTGAAKPYWHQSMFWSDLGPDVGYEAIGLVDSSLPTVGVFAKATAQDNPKSATEQSGTGIRSESETESEASEITIPPSAPAVPQVPVEGEDYGKGVIFYLRDKVVVGIVLWNVFNRMPIARKIIKDGEQHEDLNEVAKLFNIHED
modifications: left off: small tags and cut ends
notes: His-tagged mouse AIF with amino acids 441 to 463 mutated to poly-alanine
- binding to 32P-labeled automodified PARP-1 or purified 32P-labeled PAR (PAR [1]; His-tagged proteins): comparable binding to that of unmutated WT-AIFm

Further lines, the molecule ahead of its results:

Molecule: AIFK589L;K592L: His-tagged mouse AIF double leucine mutant, SEQ. ID NO. 21 (LRDKVVVGIVLWNVFNRMPIARLIIL; also: His tag)
- reduced PAR binding (PAR [1]): about 85%

B1: AIF-Sm: full length mouse AIF, arginine at 588 substituted with alanine (protein, UniProt Q9Z0X1 1-612, looked up, variant R588A)
chain: MFRCGGLAGAFKQKLVPLVRTVYVQRPKQRNRLPGNLFQQWRVPLELQMARQMASSGSSGGKMDNSVLVLIVGLSTIGAGAYAYKTIKEDQKRYNERVMGLGLSPEEKQRRAIASATEGGSVPQIRAPSHVPFLLIGGGTAAFAAARSIRARDPGARVLIVSEDPELPYMRPPLSKELWFSDDPNVTKTLQFRQWNGKERSIYFQPPSFYVSAQDLPNIENGGVAVLTGKKVVHLDVRGNMVKLNDGSQITFEKCLIATGGTPRSLSAIDRAGAEVKSRTTLFRKIGDFRALEKISREVKSITVIGGGFLGSELACALGRKSQASGIEVIQLFPEKGNMGKILPQYLSNWTMEKVKREGVKVMPNAIVQSVGVSGGRLLIKLKDGRKVETDHIVTAVGLEPNVELAKTGGLEIDSDFGGFRVNAELQARSNIWVAGDAACFYDIKLGRRRVEHHDHAVVSGRLAGENMTGAAKPYWHQSMFWSDLGPDVGYEAIGLVDSSLPTVGVFAKATAQDNPKSATEQSGTGIRSESETESEASEITIPPSAPAVPQVPVEGEDYGKGVIFYLRDKVVVGIVLWNVFNRMPIAAKIIKDGEQHEDLNEVAKLFNIHED
modifications: full-length
notes: full length mouse AIF, arginine at 588 substituted with alanine
- reduced PAR binding (PAR [1]): 40%

B2: AIF-Qm: full length mouse AIF, arginine 588, lysine 589, lysine 592 and arginine 583 substituted with alanines (protein, UniProt Q9Z0X1 1-612, looked up, variant R583A R588A K589A K592A)
chain: B1 chain with R583A, K589A, K592A
modifications: full-length
notes: full length mouse AIF, arginine 588, lysine 589, lysine 592 and arginine 583 substituted with alanines
- reduced PAR binding (PAR [1]): 90%

B3: AIFK254A;R264A: full length mouse AIF DNA-binding mutant, K to A at 254 and R to A at 264 (protein)
chain: B1 chain with K254A, R264A, A588R
modifications: left off: small tags and cut ends
- binding to 32P-labeled automodified PARP-1 or purified 32P-labeled PAR (PAR [1]; His-tagged proteins): still substantially binds; also recorded: bound to ^32P-labeled automodified PARP-1 and purified ^32P-labeled PAR
- effect of hundred fold excess of salmon sperm DNA on PAR binding (PAR [1]): fails to disrupt
- effect of salmon sperm DNA on PAR binding (PAR [1]): failed to disrupt PAR binding

B4: AIF-Dm: full length mouse AIF, arginine 588 and lysine 589 substituted with alanines (protein, UniProt Q9Z0X1 1-612, looked up, variant R588A K589A)
chain: B1 chain with K589A
modifications: full-length
notes: full length mouse AIF, arginine 588 and lysine 589 substituted with alanines
- reduced PAR binding (PAR [1]): 80%
